Patent US7799775B2, “Pyrimidine derivatives” (ASKA Pharmaceutical Co., Ltd., priority 2004, dated 2010)
Blank lines part the entries; values can stand above or below the molecule they belong to.

Tests used:
5-HT3 receptor = target: T1, 5-HT3 receptor (Rattus norvegicus, UniProt P35563); experiment: Measurement of 5-HT3 receptor antagonistic action on rats (in vivo): inhibition of serotonin-induced bradycardia (BJ reflex); conditions: anesthetized SD male rats, serotonin 300 μg/kg 10 minutes later
T1 construct: from tissue; host or cells: whole animal (SD male rats), serotonin-induced bradycardia
T1 sequence (P35563 24-483): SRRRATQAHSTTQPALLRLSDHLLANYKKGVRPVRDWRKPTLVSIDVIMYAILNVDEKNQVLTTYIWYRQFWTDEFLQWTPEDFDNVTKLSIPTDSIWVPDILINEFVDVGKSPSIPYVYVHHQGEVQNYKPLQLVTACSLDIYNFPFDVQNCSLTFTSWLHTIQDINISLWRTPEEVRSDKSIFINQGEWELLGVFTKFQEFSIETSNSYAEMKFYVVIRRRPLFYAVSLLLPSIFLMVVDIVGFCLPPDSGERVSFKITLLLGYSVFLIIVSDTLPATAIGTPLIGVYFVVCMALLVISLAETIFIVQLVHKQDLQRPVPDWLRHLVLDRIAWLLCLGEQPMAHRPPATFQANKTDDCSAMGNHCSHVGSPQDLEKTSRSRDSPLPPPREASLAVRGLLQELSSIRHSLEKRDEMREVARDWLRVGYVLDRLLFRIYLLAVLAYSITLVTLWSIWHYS
Experimental: (4) Measurement of 5-HT3 Receptor Antagonistic Action on Rats (in Vivo)
SD male rats (weighing 270-410 g) were anesthetized by peritoneal administration of 1.25 g/kg of urethane (as dissolved in distilled water), and then catheters for measuring blood pressure and heart rate were inserted into their left carotid artery and a catheter for administration of test compound was inserted into their […]. After their blood pressure and heart rate were stabilized, 300 μg/kg of 5-hydroxytryptamine creatinine sulfate (serotonin) was rapidly intravenously administered and thereby induced transient bradycardiac reaction (BC 1) was observed. When the blood pressure and heart rate were re-stabilized after the serotonic administration, the test compounds were intravenously administered to the rats. Ten minutes thereafter, 300 μg/kg of serotonin was once again rapidly intravenously administered and thereby induced transient bradycardiac reaction (BC 2) was observed. Percent inhibition of bradycardia manifestation of each test compound, i.e., BJ reflex inhibition, can be calculated according to the following expression: […]

[1] = test system: rats under restraint stress; experiment: Measurement of defecation acceleration in rats under restraint stress; assay type: in vivo, rat; conditions: 1 hour restraint stress, group average (Normal 1.7, Control 6.8)
Experimental: (5) Measurement of Defecation Acceleration in Rats under Restraint Stress […] Feed and drinking water were left for their free ingestion until the morning of the day on which the test was given. On the day of the experiment, test compounds were orally administered and positive control solution (the used compounds were dissolved in 1N-hydrochloric acid and diluted with a suitable amount of saline) was administered intraperitoneally. Five (5) minutes thereafter, under lightly anesthetized condition, the rats were placed under restraint stress, with their upper half of the bodies including the front feet immobilized with gum tape. The restraint stress loading was conducted for an hour, and the number of excrements discharged during that period was counted. […] Those compounds which were used as the positive control chemicals used in the acceleration of defecation in rats under restraint stress are identified with the following structures.

SMILES: Cc1ccc2ccnc(N3CCN(C)CC3)c2c1 [Production Example 47, 7-methyl-1-(4-methylpiperazin-1-yl)isoquinoline]
- BC Inhibition (%) (5-HT3 receptor; dose 1.0 mg/kg intravenous): 89.9%

SMILES: Clc1ccc2ccnc(N3CCNCC3)c2c1 [Production Example 49, 7-chloro-1-piperazin-1-ylisoquinoline]
- BC Inhibition (%) (5-HT3 receptor; dose 1.0 mg/kg intravenous): 96.8%

SMILES: COc1ccc2ccnc(N3CCN4CCC[C@H]4C3)c2c1 [Production Example 72, 1-((8aS)-octahydropyrrolo[1,2-a]pyrazin-2-yl)-7-methoxyisoquinoline]
- BC Inhibition (%) (5-HT3 receptor; dose 0.3 mg/kg intravenous): 72.5%

- BC Inhibition (%) (5-HT3 receptor; dose 1.0 mg/kg intravenous): 90.1%
SMILES: Nn1c(CCCCN2CCN(c3ccc4ccccc4n3)CC2)nc2ccccc2c1=O [Example 4-3, 3-amino-2-[4-(4-quinolin-2-ylpiperazin-1-yl)butyl]-3H-quinazolin-4-one]

SMILES: COc1ccc2ccnc(N3CCNC(C)C3)c2c1 (centres unmarked) [Production Example 38, 7-methoxy-1-(3-methylpiperazin-1-yl)isoquinoline]
- BC Inhibition (%) (5-HT3 receptor; dose 1.0 mg/kg intravenous): 82.9%

- BC Inhibition (%) (5-HT3 receptor; dose 0.1 mg/kg intravenous): 49.1%
SMILES: Nn1c(CCCCN2CCN(c3ccc4ccccc4n3)CC2)nc2cccc(Cl)c2c1=O [Example 4-25, 3-amino-5-chloro-2-[4-(4-quinolin-2-ylpiperazin-1-yl)butyl]-3H-quinazolin-4-one]

SMILES: Cn1c(CCCCN2CCN(c3ccc4ccccc4n3)CC2)nc2c(c1=O)CCCC2 [Example 7-1, 3-methyl-2-[4-(4-quinolin-2-ylpiperazin-1-yl)butyl]-5,6,7,8-tetrahydro-3H-quinazolin-4-one]
- BC Inhibition (%) (5-HT3 receptor; dose 0.1 mg/kg intravenous): 90.3%
- Number of excrements ([1]; 1 mg/kg oral administration): 5.8
- Number of excrements ([1]; 3 mg/kg oral administration): 3.8
- Number of excrements ([1]; 10 mg/kg oral administration): 2.3

- BC Inhibition (%) (5-HT3 receptor; dose 0.1 mg/kg intravenous): 68.7%
SMILES: Cc1cc(N2CCN(CCCCc3nc4ccccc4c(=O)n3N)CC2)nc2ccccc12 [Example 4-4, 3-amino-2-[4-[4-(4-methylquinolin-2-yl)piperazin-1-yl]butyl]-3H-quinazolin-4-one]

- BC Inhibition (%) (5-HT3 receptor; dose 0.01 mg/kg intravenous): 64.7%
SMILES: Cn1c(CCCCN2CCN(c3ccc4ccccc4n3)CC2)nc2ccccc2c1=O [Example 7-20, 3-methyl-2-[4-(4-quinolin-2-ylpiperazin-1-yl)butyl]-3H-quinazolin-4-one]
- Number of excrements ([1]; 1 mg/kg oral administration): 5.4
- Number of excrements ([1]; 3 mg/kg oral administration): 3.6
- Number of excrements ([1]; 10 mg/kg oral administration): 2.4

SMILES: c1cc2ccoc2c(N2CCN3CCC[C@H]3C2)n1 [Production Example 102, 7-((8aS)-octahydropyrrolo[1,2-a]pyrazin-2-yl)furo[2,3-c]-pyridine]
- BC Inhibition (%) (5-HT3 receptor; dose 3.0 mg/kg intravenous): 61.5%

SMILES: c1cc2sccc2c(N2CCN3CCC[C@H]3C2)n1 [Production Example 104, 4-((8aS)-octahydropyrrolo[1,2-a]pyrazin-2-yl)thieno[3,2-c]pyridine]
- BC Inhibition (%) (5-HT3 receptor; dose 10.0 mg/kg intravenous): 46.1%

- BC Inhibition (%) (5-HT3 receptor; dose 0.1 mg/kg intravenous): 70.4%
SMILES: Nn1c(CCCCN2CCN(c3ccc4ccccc4n3)CC2)nc2c(c1=O)CCCC2 [Example 4-1, 3-amino-2-[4-(4-quinolin-2-ylpiperazin-1-yl)butyl]-5,6,7,8-tetrahydro-3H-quinazolin-4-one]
- Number of excrements ([1]; 0.3 mg/kg intraperitoneal administration): 5.3
- Number of excrements ([1]; 1 mg/kg intraperitoneal administration): 4.3
- Number of excrements ([1]; 3 mg/kg intraperitoneal administration): 2.1

SMILES: Clc1ccc2ccnc(N3CCN4CCC[C@H]4C3)c2c1 [Production Example 73, 7-chloro-1-((8aS)-octahydropyrrolo[1,2-a]pyrazin-2-yl)isoquinoline]
- BC Inhibition (%) (5-HT3 receptor; dose 0.01 mg/kg intravenous): 52.2%

- BC Inhibition (%) (5-HT3 receptor; dose 0.1 mg/kg intravenous): 35.6%
SMILES: Nn1c(CCCCN2CCN(c3ccc4ccccc4n3)CC2)nc2ccsc2c1=O [Example 4-18, 3-amino-2-[4-(4-quinolin-2-ylpiperazin-1-yl)butyl]-3H-thieno[3,2-d]-pyrimidin-4-one]

SMILES: c1cc2ccsc2c(N2CCN3CCC[C@H]3C2)n1 [Production Example 103, 7-((8aS)-octahydropyrrolo[1,2-a]pyrazin-2-yl)thieno[2,3-c]pyridine]
- BC Inhibition (%) (5-HT3 receptor; dose 3.0 mg/kg intravenous): 57.6%

- BC Inhibition (%) (5-HT3 receptor; dose 0.01 mg/kg intravenous): 58.5%
SMILES: Cc1cc(N2CCN(CCCCc3nc4c(c(=O)n3C)CCCC4)CC2)nc2ccccc12 [Example 7-6, 3-methyl-2-[4-[4-(4-methylquinolin-2-yl)piperazin-1-yl]butyl]-5,6,7,8-tetrahydro-3H-quinazolin-4-one]
- Number of excrements ([1]; 1 mg/kg oral administration): 5.4
- Number of excrements ([1]; 3 mg/kg oral administration): 4.0
- Number of excrements ([1]; 10 mg/kg oral administration): 2.9

- BC Inhibition (%) (5-HT3 receptor; dose 1.0 mg/kg intravenous): 85.4%
SMILES: CCn1c(CCCCN2CCN(c3cc(C)c4ccccc4n3)CC2)nc2c(c1=O)CCCC2 [Example 7-7, 3-ethyl-2-[4-[4-(4-methylquinolin-2-yl)piperazin-1-yl]butyl]-5,6,7,8-tetrahydro-3H-quinazolin-4-one]
